From US20140350092A1, “METHOD FOR […] VIRUS INFECTION” (Natura Corporation, priority 2003, published 2014)

Experiments:
Japan cedar pollen [1] = experiment: Assay of pollen enclosure (pollen rouleaux formation / pollen aggregation)
Method: In order to assay the actions of pectin and nucleic acid, contained in the contact preventive biological preparation of the present invention, on pollen, the following experiments were carried out. In the following experiments, by “pollen rouleaux formation” is meant a state in which a plurality of pollen particles continue linearly, and by “pollen aggregation” is meant a state in which a plurality of pollen particles constitute a bulk. Both “pollen rouleaux formation” and “pollen aggregation” denote a state in which pollen particles are captured by a medium and their free movement is inhibited, and as the degree thereof increases, the power of enclosing pollen increases.
Japan cedar pollen was put in a first water solution containing pectin (#168-00555 by Wako Pure Chemical Industries, Ltd.), in a second water solution containing glycerin, in a third water solution containing pectin and glycerin, and in a fourth water solution containing DNA (DN-JA0904, DK-JB0218 by Daiwa Fine Chemical Co. Ltd.), RNA (R6625 by Sigma), amino acid, and glycerin, and these water solutions were subjected to incubation for ten minutes at room temperature to prepare pollen developed liquids.
Each pollen developed liquid was instilled in the form of a drop onto a slide glass and was allowed to stand. After being dried, the test sample was stained by means of a ruthenium red solution and a gentian violet alcohol solution, and the assay of pollen rouleaux formation was examined microscopically.
In order to comparatively examine the actions of enclosing pollen by pectins, uronic acid-containing substances, and mucopolysaccharides according to the present invention, the following twelve kinds of samples were examined in the same way as the first exemplary embodiment. The twelve samples were: YM115-H; LM101-AS; Type DF; SLENDID type 100; SLENDID type 200; LM104AS-FS; LM-SCS; USP-H; USP-L; LH-105AS; AS Confectionary; and YM150-LJ by Genu.

[2] = after ingestion versus before ingestion; cited from earlier work
[3] = system: neuraminidase of the type A influenza virus; experiment: enzymatic activity of influenza-virus neuraminidase (synthetic coloring substrate); format: biochemical
Method: The activity of neuraminidase of the type A influenza virus was analyzed by an enzymic reaction with a synthetic coloring substrate (Gene Stat Flu Kit by Nichirei). This enzymic reaction is based on the power of neuraminidase to cut acetyl neuraminic, and darker solution's blue-coloring result indicates higher enzymatic activity.
A virus test body, taken from the larynx of a type A influenza infected patient, was divided into two sample pieces, i.e., a control sample and a sample used for the evaluation of the anti-enzyme activity of pectins.

[4] = Application testing of eyedrop and nosedrop biological preparations on pollenosis sufferer; format: in vivo, human
Method: The contact preventive biological preparation according to the present invention was applied to eyedrop and nosedrop biological preparations and their application tests were carried out on test subjects. These eyedrop and nosedrop biological preparations according to the present exemplary embodiment contain therein pectin (type DF et cetera by Genu) and DNA (Daiwa Fine Chemical Co. Ltd.) at the following contents.
The content of pectin and the content of DNA are: pectin (0.03 to 1.0%); DNA (0.05 to 1.0%); 0.5% pectin+0.5% DNA; 0.8% pectin+0.2% DNA; and 0.2% pectin+0.8% DNA.
Pollenosis sufferers were test subjects, and the degree of improvement in itching symptom when each eyedrop biological preparation was administrated at the time of the development of an allergic reaction and its duration and application (use) feeling (the degree of uncomfortable feeling) were examined. The results thus obtained were evaluated according to the following evaluation standards.

[5] = Comparison in action with commercially available eyedrop and nosedrop biological preparations; parameters: species or system human; details: in vivo
Excerpt: Conventional, commercially available eyedrop and nosedrop biological preparations against pollenosis symptoms were compared with the biological preparations according to the present invention in the action with respect to the manifestation of pollenosis symptoms.
The commercially available nosedrop biological preparations contain a vasopressor agent, an antihistamic agent, a bactericidal substance, a fragrant material et cetera.

[6] = system: pollenosis sufferer's white blood cells; experiment: in vitro cluster formation by pollenosis sufferer's white blood cells and pollen; format: cell-based, human; details: pollen dispersed in 0.3% pectin water solution
Method: White blood cells separated from the blood of a pollenosis sufferer was subjected to incubation on a slide glass with cedar pollen fixed thereonto.

[7] = system: basophiles in the blood of a pollenosis sufferer; experiment: emission of histamine from basophiles in the blood of a pollenosis sufferer; format: cell-based, human
Method: Blood sampling from a pollenosis sufferer was carried out, and basophiles recognized by a cell surface marker were separated by means of a magnet method. Then, the basophiles thus separated were exposed to a pollen extraction component fixed onto a micro plate, and emitted histamine was quantitatively measured by an absorbance method through a coloring reaction making use of antihistamic antibodies (HRT by Shionogi & Co., Ltd.).
A control sample making use of only a buffering solution, a sample comprising a pectin-containing buffering solution, and a nucleic acid-containing sample were prepared, and the rate of liberation of histamine with respect to the increase of allergen was comparatively examined. In the experiment, a cedar pollen extraction antigen was used as an allergen.

Japan cedar pollen [8] = experiment: Assay of pollen enclosure (pollen rouleaux formation / pollen aggregation); details: in biological preparations (artificial tears, nose spray, mouth washer) and drug solutions

Compound: OB(O)O [boric acid]
- effect on pollen aggregation / dispersion (Japan cedar pollen [1]): promoted the aggregation of pollen
- pollen burst (Japan cedar pollen [1]): causing pollen to burst

Compound: N[C@@H](CCC(=O)O)C(=O)O [glutamic acid]
- effect of additive on the pollen enclosing action of pectin (Japan cedar pollen [1]): reinforce the action of enclosing pollen by pectin

Compound: OC[C@H]1O[C@H](O[C@H]2O[C@H](CO)[C@@H](O)[C@H](O)[C@H]2O)[C@H](O)[C@@H](O)[C@@H]1O [trehalose]
- effect of additive on the pollen enclosing action of pectin (Japan cedar pollen [1]): reinforced

Compound: apple pectin
- drop of concentration of histamine in the blood [2]: 24%

Compound: carboxymethyl cellulose
- effect of additive on the pollen enclosing action of pectin (Japan cedar pollen [1]): reinforced

Compound: carrageenan [carrageenan (K-100J), reference compound]
- pollen enclosing power (Japan cedar pollen [1]; comparison of samples, same way as first exemplary embodiment): less significant in pollen enclosing power than the others

Compound: cluster dextrin
- effect of additive on the pollen enclosing action of pectin (Japan cedar pollen [1]): reinforced

Compound: heparin [reference compound]
- neuraminidase enzymatic activity (blue color reaction) ([3]; heparin 20 unit/ml): color exhibition of blue coloring became dull

Compound: methyl cellulose
- effect of additive on the pollen enclosing action of pectin (Japan cedar pollen [1]): reinforced

Compound: pectin
- curative properties against the symptoms ([4]; eyedrop, FIG. 3, 0.5% pectin or 0.5% DNA): obvious curative properties against the symptoms
- application feeling ([4]; eyedrops of a pectin concentration of 0.5% or more): caused a sticky feeling
- curative properties against pollenosis symptoms (itching and snuffles) ([4]; pectin from 0.03 to 1%, used alone): curative properties against pollenosis symptoms
- pollen rouleaux formation (Japan cedar pollen [1]; no pectin or pectin at a low concentration of less than 0.3%): no rouleaux capture of cedar pollen was detected
- pollen rouleaux formation (Japan cedar pollen [1]; pectin from about 0.03 to about 3.0%): pollen rouleaux formation was promoted
- irritation / sensation on application [5]: felling of drying
- neuraminidase enzymatic activity (blue color reaction) ([3]; 0.05% pectin (USD-H by Genu)): no color reaction was observed
- accumulation of white blood cells on pollen [6]: no tendency to accumulate on pollen
- effect of preventing the liberation of histamine ([7]; 0.03% pectin alone, FIG. 2): impossible for a 0.03% pectin-containing sample alone to provide a satisfactory effect
- liberation of histamine from basophiles ([7]; 0.03% pectin, cedar pollen extraction antigen, FIG. 1): inhibited over a wide range
- liberation of histamine from basophiles ([7]; pectin about 0.1% to about 0.3%, high-concentration cedar pollen): inhibited
- pollen enclosing function of pectin in presence of other components (Japan cedar pollen [8]): exerted satisfactorily without any interference
